# Columns and labels:
# [1] = In vitro radiochemical stability; format: physicochemical; settings: 40°C, after 30 min of incubation
# Description: In vitro radiochemical stabilities of [^18F]1 and [^18F]2 were investigated in 0.9% NaCl solution, Dulbecco’s phosphate buffer, 0.01 M Tris–HCl (pH 7.4 at 21°C), and EtOH at 40°C for 90 min. Samples were taken at 15, 30, 60, and 90 min after incubation and analyzed by radio-TLC and radio-HPLC.
# [2] = Ex vivo biodistribution (organ distribution) in mice; settings: i.v. 300 to 400 kBq, female CD1 mice
# Description: (§1) Female CD1 mice (10 to 12 weeks old, 20 to 25 g) received an injection of 300 to 400 kBq of [^18F]1 or [^18F]2 with specific activities of >450 GBq/μmol in 200 μL of 0.9% NaCl/10% EtOH into the tail vein. The animals were anesthetized (CO2/O2 mixture) for blood and urine sampling and euthanized by luxation of the cervical spine at 5, 30, and 60 min after injection (p.i.) (n = 2 to 5 per time). The organs of interest were removed and weighed, and the activities were measured by γ counting using a calibrated γ counter Wallac Wizard 1470 (Perkin Elmer Inc., Waltham, MA, USA). The percentage of injected dose per gram of wet tissue (% ID/g wet weight) was calculated.
# [3] = target: CB2R (Mus musculus, UniProt P47936); parameters: species or system female CD1 mice; settings: female, CD1, mouse, in vivo
# Sequence of CB2R (P47936 whole entry): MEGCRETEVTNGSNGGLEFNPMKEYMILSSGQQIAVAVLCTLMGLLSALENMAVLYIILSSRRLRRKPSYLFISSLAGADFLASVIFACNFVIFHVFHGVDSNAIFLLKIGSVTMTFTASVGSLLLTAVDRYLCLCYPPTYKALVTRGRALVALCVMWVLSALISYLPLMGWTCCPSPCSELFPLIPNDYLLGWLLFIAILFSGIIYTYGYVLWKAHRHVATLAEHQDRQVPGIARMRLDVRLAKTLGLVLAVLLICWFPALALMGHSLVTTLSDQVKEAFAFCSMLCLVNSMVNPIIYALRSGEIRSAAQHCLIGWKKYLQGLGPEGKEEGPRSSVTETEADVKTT
# Description: as §1
# (3 mg/kg i.p. in 0.9% saline, 10 min before the injection of the radiotracer) at 60 min p.i. (n = 2 to 5). The unpaired two-tailed t test was used to compare the results between the groups. We considered differences to be significant at a p value <0.05.
# [4] = Ex vivo metabolite studies (radio-HPLC of plasma and brain extracts); format: in vivo, CD1 mice; settings: mice
# Description: [^18F]1 and [^18F]2 (100 to 150 MBq, 250 to 450 GBq/μmol in 150 μL NaCl 0.9%/10% EtOH) were injected via the tail vein in CD1 male mice (10 to 12 weeks old, 20 to 25 g). Blood and urine samples were obtained at 30 and 60 min p.i. (n = 3 per time point). Twofold extractions of plasma and brain samples (n = 3) were performed using ice-cold MeCN according to the standard protocol established in our group (see [47, 48]). Briefly, plasma samples were obtained by centrifugation of the blood at 4,000×g at 4°C for 10 min, and brain samples were homogenized in ice-cold 50 mM Tris–HCl (pH = 7.4). The samples were vortexed, incubated on ice, and centrifuged at 10,000×g for 3 min. Supernatants were collected, and the precipitates were re-dissolved in ice-cold MeCN for the second extraction. The supernatants from the two extractions were combined, concentrated under a gentle argon stream at 65°C, and analyzed by radio-TLC and gradient analytical HPLC (see ‘Radiochemistry’ section). Aliquots from each extraction supernatant and the precipitates were also taken and quantified by γ counting (Wallac Wizard 1470, Perkin Elmer Inc., Waltham, MA, USA) along with the respective aliquots of intact plasma samples and brain homogenates. A moderate recovery of radioactivity was obtained from plasma samples and brain homogenates (60% to 70%). Radiometabolites of [^18F]17 in the plasma, spleen, and brain were assessed at 30 and 60 min p.i.
compound,measurement,setting,value
O=C(CCc1nc(-c2ccc(F)cc2Br)no1)Nc1ccc2c(c1)c1ccccc1n2CC[18F] [[^18F]1],intact tracer,[1]; 0.9% NaCl,95%
same,intact tracer,[1]; Dulbecco’s phosphate buffer,94%
same,intact tracer,[1]; EtOH,93%
same,intact tracer,[1]; Tris–HCl,89%
same,"Radioactivity uptake, Adrenals, Control 5 min",[2],4.16 ± 6.23 % ID/g
same,"Radioactivity uptake, Adrenals, Control 30 min",[2],3.31 ± 0.99 % ID/g
same,"Radioactivity uptake, Adrenals, Control 60 min",[2],3.16 ± 1.25 % ID/g
same,"Radioactivity uptake, Bladder, Control 5 min",[2],2.23 ± 1.39 % ID/g
same,"Radioactivity uptake, Bladder, Control 30 min",[2],1.65 ± 0.43 % ID/g
same,"Radioactivity uptake, Bladder, Control 60 min",[2],3.27 ± 1.94 % ID/g
same,"Radioactivity uptake, Blood, Control 5 min",[2],1.94 ± 0.44 % ID/g
same,"Radioactivity uptake, Blood, Control 30 min",[2],1.44 ± 0.41 % ID/g
same,"Radioactivity uptake, Blood, Control 60 min",[2],1.94 ± 0.69 % ID/g
same,"Radioactivity uptake, Brain, Control 5 min",[2],1.31 ± 0.24 % ID/g
same,"Radioactivity uptake, Brain, Control 30 min",[2],0.76 ± 0.22 % ID/g
same,"Radioactivity uptake, Brain, Control 60 min",[2],0.92 ± 0.27 % ID/g
same,"Radioactivity uptake, Femur, Control 5 min",[2],2.00 ± 0.38 % ID/g
same,"Radioactivity uptake, Femur, Control 30 min",[2],1.37 ± 0.50 % ID/g
same,"Radioactivity uptake, Femur, Control 60 min",[2],1.84 ± 0.35 % ID/g
same,"Radioactivity uptake, Gonads, Control 5 min",[2],1.06 ± 0.94 % ID/g
same,"Radioactivity uptake, Gonads, Control 30 min",[2],1.02 ± 0.26 % ID/g
same,"Radioactivity uptake, Gonads, Control 60 min",[2],1.33 ± 0.50 % ID/g
same,"Radioactivity uptake, Heart, Control 5 min",[2],3.39 ± 0.45 % ID/g
same,"Radioactivity uptake, Heart, Control 30 min",[2],1.43 ± 0.47 % ID/g
same,"Radioactivity uptake, Heart, Control 60 min",[2],1.66 ± 0.37 % ID/g
same,"Radioactivity uptake, Kidney, Control 5 min",[2],13.40 ± 5.66 % ID/g
same,"Radioactivity uptake, Kidney, Control 30 min",[2],2.68 ± 0.37 % ID/g
same,"Radioactivity uptake, Kidney, Control 60 min",[2],1.65 ± 0.49 % ID/g
same,"Radioactivity uptake, Large intestine, Control 5 min",[2],1.91 ± 2.66 % ID/g
same,"Radioactivity uptake, Large intestine, Control 30 min",[2],3.24 ± 5.61 % ID/g
same,"Radioactivity uptake, Large intestine, Control 60 min",[2],1.54 ± 0.42 % ID/g
same,"Radioactivity uptake, Liver, Control 5 min",[2],11.00 ± 1.04 % ID/g
same,"Radioactivity uptake, Liver, Control 30 min",[2],4.38 ± 1.19 % ID/g
same,"Radioactivity uptake, Liver, Control 60 min",[2],5.29 ± 1.22 % ID/g
same,"Radioactivity uptake, Lung, Control 5 min",[2],3.68 ± 0.62 % ID/g
same,"Radioactivity uptake, Lung, Control 30 min",[2],1.65 ± 0.70 % ID/g
same,"Radioactivity uptake, Lung, Control 60 min",[2],1.77 ± 0.74 % ID/g
same,"Radioactivity uptake, Muscle, Control 5 min",[2],2.10 ± 0.33 % ID/g
same,"Radioactivity uptake, Muscle, Control 30 min",[2],1.02 ± 0.50 % ID/g
same,"Radioactivity uptake, Muscle, Control 60 min",[2],0.89 ± 0.19 % ID/g
same,"Radioactivity uptake, Pancreas, Control 5 min",[2],4.97 ± 0.62 % ID/g
same,"Radioactivity uptake, Pancreas, Control 30 min",[2],1.50 ± 0.74 % ID/g
same,"Radioactivity uptake, Pancreas, Control 60 min",[2],1.13 ± 0.11 % ID/g
same,"Radioactivity uptake, Plasma, Control 5 min",[2],2.52 ± 0.58 % ID/g
same,"Radioactivity uptake, Plasma, Control 30 min",[2],1.88 ± 0.58 % ID/g
same,"Radioactivity uptake, Plasma, Control 60 min",[2],2.50 ± 0.87 % ID/g
same,"Radioactivity uptake, Small intestine, Control 5 min",[2],4.36 ± 2.09 % ID/g
same,"Radioactivity uptake, Small intestine, Control 30 min",[2],10.51 ± 8.38 % ID/g
same,"Radioactivity uptake, Small intestine, Control 60 min",[2],22.03 ± 8.32 % ID/g
same,"Radioactivity uptake, Spleen, Control 5 min",[2],3.44 ± 0.77 % ID/g
same,"Radioactivity uptake, Spleen, Control 30 min",[2],1.46 ± 0.56 % ID/g
same,"Radioactivity uptake, Spleen, Control 60 min",[2],1.52 ± 0.62 % ID/g
same,"Radioactivity uptake, Stomach, Control 5 min",[2],2.05 ± 0.33 % ID/g
same,"Radioactivity uptake, Stomach, Control 30 min",[2],1.23 ± 0.36 % ID/g
same,"Radioactivity uptake, Stomach, Control 60 min",[2],2.70 ± 1.47 % ID/g
same,"Radioactivity uptake, Thymus, Control 5 min",[2],3.30 ± 0.58 % ID/g
same,"Radioactivity uptake, Thymus, Control 30 min",[2],1.57 ± 0.80 % ID/g
same,"Radioactivity uptake, Thymus, Control 60 min",[2],1.90 ± 0.98 % ID/g
same,"Radioactivity uptake, Adrenals, Blocking 60 min","[3]; 3 mg/kg, 1 h",3.00 ± 0.64 % ID/g
same,"Radioactivity uptake, Bladder, Blocking 60 min","[3]; 3 mg/kg, 1 h",5.07 ± 3.84 % ID/g
same,"Radioactivity uptake, Blood, Blocking 60 min","[3]; 3 mg/kg, 1 h",1.43 ± 0.34 % ID/g
same,"Radioactivity uptake, Brain, Blocking 60 min","[3]; 3 mg/kg, 1 h",0.66 ± 0.11 % ID/g
same,"Radioactivity uptake, Femur, Blocking 60 min","[3]; 3 mg/kg, 1 h",1.49 ± 0.45 % ID/g
same,"Radioactivity uptake, Gonads, Blocking 60 min","[3]; 3 mg/kg, 1 h",1.19 ± 0.30 % ID/g
same,"Radioactivity uptake, Heart, Blocking 60 min","[3]; 3 mg/kg, 1 h",1.49 ± 0.29 % ID/g
same,"Radioactivity uptake, Kidney, Blocking 60 min","[3]; 3 mg/kg, 1 h",1.74 ± 0.48 % ID/g
same,"Radioactivity uptake, Large intestine, Blocking 60 min","[3]; 3 mg/kg, 1 h",1.63 ± 0.64 % ID/g
same,"Radioactivity uptake, Liver, Blocking 60 min","[3]; 3 mg/kg, 1 h",4.22 ± 0.96 % ID/g
same,"Radioactivity uptake, Lung, Blocking 60 min","[3]; 3 mg/kg, 1 h",1.47 ± 0.29 % ID/g
same,"Radioactivity uptake, Muscle, Blocking 60 min","[3]; 3 mg/kg, 1 h",0.93 ± 0.23 % ID/g
same,"Radioactivity uptake, Pancreas, Blocking 60 min","[3]; 3 mg/kg, 1 h",1.03 ± 0.26 % ID/g
same,"Radioactivity uptake, Plasma, Blocking 60 min","[3]; 3 mg/kg, 1 h",1.87 ± 0.41 % ID/g
same,"Radioactivity uptake, Small intestine, Blocking 60 min","[3]; 3 mg/kg, 1 h",19.39 ± 5.53 % ID/g
same,"Radioactivity uptake, Spleen, Blocking 60 min","[3]; 3 mg/kg, 1 h",0.98 ± 0.21 % ID/g
same,"Radioactivity uptake, Stomach, Blocking 60 min","[3]; 3 mg/kg, 1 h",1.84 ± 1.28 % ID/g
same,"Radioactivity uptake, Thymus, Blocking 60 min","[3]; 3 mg/kg, 1 h",1.50 ± 0.35 % ID/g
same,"% control, Adrenals",[3]; 60 min,95 % control
same,"% control, Bladder",[3]; 60 min,155 % control
same,"% control, Blood",[3]; 60 min,74 % control
same,"% control, Brain",[3]; 60 min,72 % control
same,"% control, Femur",[3]; 60 min,81 % control
same,"% control, Gonads",[3]; 60 min,89 % control
same,"% control, Heart",[3]; 60 min,90 % control
same,"% control, Kidney",[3]; 60 min,106 % control
same,"% control, L. intestine",[3]; 60 min,106 % control
same,"% control, Liver",[3]; 60 min,80 % control
same,"% control, Lung",[3]; 60 min,83 % control
same,"% control, Muscle",[3]; 60 min,104 % control
same,"% control, Pancreas",[3]; 60 min,91 % control
same,"% control, Plasma",[3]; 60 min,75 % control
same,"% control, S. intestine",[3]; 60 min,88 % control
same,"% control, Spleen",[3]; 60 min,65 % control
same,"% control, Stomach",[3]; 60 min,68 % control
same,"% control, Thymus",[3]; 60 min,79 % control
same,"Percentage of total activity in brain samples, 30 min p.i.","[4]; brain homogenate extract, 30 min p.i. of [18F]1 or [18F]2, radio-HPLC",68%
same,"Percentage of total activity in brain samples, 60 min p.i.","[4]; brain homogenate extract, 60 min p.i. of [18F]1 or [18F]2, radio-HPLC",35%
same,"Relative percentage of intact tracer and radiometabolites, Plasma 30 min p.i.","[4]; plasma, 30 min p.i. of [18F]1 or [18F]2, radio-HPLC",60%
same,"Relative percentage of intact tracer and radiometabolites, Plasma 60 min p.i.","[4]; plasma, 60 min p.i. of [18F]1 or [18F]2, radio-HPLC",7%

# Reference: paper PMC3856494, “Radiofluorination and biological evaluation of N-aryl-oxadiazolyl-propionamides as potential radioligands for PET imaging of cannabinoid CB2 receptors” (Organic and Medicinal Chemistry Letters, 2013)
